{"source": "patent US20230380435A1", "about": "“METHOD FOR PREPARING AND PRESERVING SANITIZED PRODUCTS” (Apeel Technology, Inc., priority 2016, published 2023)", "key": {"blueberries": {"system": "blueberries", "assay": "Effect of ethanol on post-harvest mass loss of blueberries", "conditions": "after just under four days, solvent only, no coating agent, 23-27 °C, humidity 40%-55%", "from_the_text": "The blueberries were all harvested simultaneously and divided into groups, each of the groups being qualitatively identical to the other groups (i.e., all groups had blueberries of approximately the same average size and quality).\nBlueberries were harvested simultaneously and divided into four groups of sixty blueberries each, each of the groups being qualitatively identical (i.e., all groups had blueberries of approximately the same average size and quality). The first group of blueberries was not washed or treated in any way and served as a control group.\nTo treat the blueberries with the various solvents, the blueberries were placed in bags, and the solvent was poured into the bag. The bag was then sealed and lightly agitated until the entire surface of each blueberry was wet. The blueberries were then removed from the bag and allowed to dry on drying racks. The blueberries were kept under ambient room conditions at a temperature in the range of 23° C.-27° C. and humidity in the range of 40%-55% while they dried and for the entire duration of the time they were tested."}, "Botrytis": {"system": "Botrytis", "conditions": "applied for 10 at least seconds; cited from earlier work"}, "Listeria monocytogenes": {"system": "Listeria monocytogenes", "conditions": "cited from earlier work"}}, "data": [{"smiles": "CCO", "note": "[substantially pure ethanol (108), ethanol]", "values": [{"measurement": "average percent mass loss", "setting": "blueberries", "value": "about 19%"}, {"measurement": "ethanol concentration inhibiting germination", "setting": "Botrytis", "value": "≥ 30", "unit": "%"}, {"measurement": "ethanol concentration inhibiting (not completely stopping) growth", "setting": "Listeria monocytogenes", "value": 5, "unit": "%"}]}]}
